Measurements from patent US7786299B2, “Methods for treating diseases or conditions using dihydropteridinone compounds” (Boehringer Ingelheim Pharma GmbH & Co. KG, priority 2003, dated 2010).

System: HeLaS3 cells
Assay: Measurement of cytotoxicity on cultivated human tumour cells (AlamarBlue)
Assay type: cell-based
Settings: HeLa in Table 1; unit inferred
Description: The activity of the compounds according to the invention was determined in the cytotoxicity test on cultivated human tumour cells and/or in a FACS analysis, for example on HeLaS3 cells.
Measurement of Cytotoxicity on Cultivated Human Tumour Cells
To measure the cytotoxicity on cultivated human tumour cells, cells of the cervical cancer tumour cell line HeLaS3 (obtained from American Type Culture Collection (ATCC)) in Ham's F12 Medium (Life Technologies) and 10% foetal calf serum (Life Technologies) were cultivated and harvested in the logarithmic growth phase. Then the HeLaS3 cells were placed in 96-well plates (Costar) at a density of 1000 cells per well and incubated overnight in an incubator (at 37° C. and 5% CO2), while on each plate 6 wells were filled only with medium (3 wells as a control of the medium, 3 wells for incubation with reduced AlamarBlue). The active substances were added to the cells in various concentrations (dissolved in DMSO; final concentration: 1%) (in each case as a triple measurement). After 72 hours' incubation, 20 μl of AlamarBlue (AccuMed International) were added to each well, and the cells were incubated for a further 7 hours. As a control, 20 μl of reduced Alamar Blue (AlamarBlue reagent which had been autoclaved for 30 min) were added to 3 wells. After 7 h incubation the colour change of the AlamarBlue reagent in the individual wells was determined in a Perkin Elmer fluorescence spectrophotometer (excitation 530 nm, emission 590 nm, slits 15, integrate time 0.1). The amount of AlamarBlue reagent reacted represents the metabolic activity of the cells. The relative cell activity was calculated as a percentage of the control (HeLa S3 cells without inhibitor) and the active substance concentration which inhibits the cell activity by 50% (IC^50) was obtained. The values were calculated from the average of three individual measurements, correcting for the control value (medium control).

Q: With `CC(C)CCN1c2nc(Nc3ccc(C(=O)NC4CC(C)(C)N(C)C(C)(C)C4)cc3)ncc2N(C)C(=O)C1C` (stereo not shown) [Example 3] as the compound, how does the IC50 read?
A: 61 nM

Q: For `COc1cc(C(=O)N[C@H]2CC[C@H](N3CCCC3)CC2)ccc1Nc1ncc2c(n1)N(CCC(C)C)[C@H](C)C(=O)N2C` [Example 35], which IC50 is on record?
A: 88 nM

Q: Which IC50 does the source give for `CC[C@@H]1C(=O)N(C)c2cnc(Nc3ccc(C(=O)NCCCN4CCOCC4)cc3)nc2N1CCC(C)C` [Example 154] here?
A: 97 nM

Q: With `COc1cc(C(=O)NC2CCC(N3CCCC3)CC2)ccc1Nc1ncc2c(n1)N(C1CCCC1)C(C)C(=O)N2C` (stereo not shown) [Example 15] as the compound, how does the IC50 read?
A: 20 nM

Q: Which IC50 does the source give for `CC1C(=O)N(C)c2cnc(Nc3ccc(C(=O)NC4CC(C)(C)N(C)C(C)(C)C4)cc3)nc2N1CC(C)(C)C` (stereo not shown) [Example 8] here?
A: 63 nM

Q: How did the IC50 turn out when `C[C@@H]1C(=O)N(C)c2cnc(Nc3ccc(C(=O)NC4CCN(C)CC4)cc3)nc2N1C1CCCC1` [Example 79] was run?
A: 43 nM

Q: For `CC1C(=O)N(C)c2cnc(Nc3ccc(C(=O)NC4CCN(Cc5ccccc5)CC4)cc3)nc2N1CC(C)(C)C` (stereo not shown) [Example 10], which IC50 is on record?
A: 91 nM

Q: With `CCC1C(=O)N(C)c2cnc(Nc3ccc(C(=O)NCCCN4CCOCC4)cc3OC)nc2N1CCC(C)C` (stereo not shown) [Example 151] as the compound, how does the IC50 read?
A: 43 nM

Q: `CCN1CCC(NC(=O)c2ccc(Nc3ncc4c(n3)N(CCC(C)C)C(C)C(=O)N4C)cc2)CC1` (stereo not shown) [Example 4] was tested. Which IC50 did it give?
A: 98 nM

Q: How did the IC50 turn out when `COc1cc(C(=O)NCCN(C(C)C)C(C)C)ccc1Nc1ncc2c(n1)N(CCC(C)C)C(C)(C)C(=O)N2C` [Example 161] was run?
A: 81 nM

Q: With `CCN1CC[C@@H](NC(=O)c2ccc(Nc3ncc4c(n3)N(CCC(C)C)[C@H](C)C(=O)N4C)cc2)C1` [Example 39] as the compound, how does the IC50 read?
A: 75 nM

Q: `CCC1C(=O)N(C)c2cnc(Nc3ccc(C(=O)NCCN4CCCCC4)cc3OC)nc2N1CCC(C)C` (stereo not shown) [Example 148] was tested. Which IC50 did it give?
A: 87 nM

Q: Which IC50 does the source give for `CC[C@@H]1C(=O)N(C)c2cnc(Nc3ccc(C(=O)NCCCN4CCOCC4)cc3OC)nc2N1CCC(C)C` [Example 152] here?
A: 81 nM

Q: For `CCC1C(=O)N(C)c2cnc(Nc3ccc(C(=O)NC4CN5CCC4CC5)cc3OC)nc2N1CCC(C)C` (stereo not shown) [Example 163], which IC50 is on record?
A: 71 nM

Q: `COc1cc(C(=O)NC2CCC(N3CCCC3)CC2)ccc1Nc1ncc2c(n1)N(CCC(C)C)[C@H](C)C(=O)N2C` (stereo partly shown) [Example 34] was tested. Which IC50 did it give?
A: 55 nM

Q: With `CC1C(=O)N(C)c2cnc(Nc3ccc(C(=O)NCCN4CCCCC4)cc3)nc2N1C1CCCC1` (stereo not shown) [Example 70] as the compound, how does the IC50 read?
A: 92 nM

Q: `COc1cc(C(=O)NC2CCC(N3CCCC3)CC2)ccc1Nc1ncc2c(n1)N(C1CCCC1)[C@H](C)C(=O)N2C` (stereo partly shown) [Example 36] was tested. Which IC50 did it give?
A: 21 nM

Q: Which IC50 does the source give for `CCN(CC)CCCNC(=O)c1ccc(Nc2ncc3c(n2)N(C2CCCC2)[C@H](C)C(=O)N3C)c(OC)c1` [Example 76] here?
A: 68 nM

Q: For `CCC1C(=O)N(C)c2cnc(Nc3ccc(C(=O)NC4CC5CCC(C4)N5C)cc3)nc2N1C1CCCC1` (stereo not shown) [Example 47], which IC50 is on record?
A: 28 nM

Q: `COc1cc(C(=O)NC2CCC(N3CCCCC3)CC2)ccc1Nc1ncc2c(n1)N(C1CCCC1)C(C)C(=O)N2C` (stereo not shown) [Example 25] was tested. Which IC50 did it give?
A: 38 nM

Q: How did the IC50 turn out when `CC[C@@H]1C(=O)N(C)c2cnc(Nc3ccc(C(=O)NCCN(C)C)cc3OC)nc2N1CCC(C)C` [Example 159] was run?
A: 29 nM

Q: `C[C@@H]1C(=O)N(C)c2cnc(Nc3ccc(C(=O)NC4CC5CCC(C4)N5C)cc3)nc2N1C1CCCCC1` (stereo partly shown) [Example 92] was tested. Which IC50 did it give?
A: 43 nM

Q: For `CN1CCC(NC(=O)c2ccc(Nc3ncc4c(n3)N(C3CCCC3)[C@H](C3CC3)C(=O)N4C)cc2)CC1` [Example 93], which IC50 is on record?
A: 60 nM

Q: With `CC[C@@H]1C(=O)N(C)c2cnc(Nc3ccc(C(=O)NCCN(CC)CC)cc3)nc2N1C(C)C` [Example 73] as the compound, how does the IC50 read?
A: 91 nM

Q: For `CCC1C(=O)N(C)c2cnc(Nc3ccc(C(=O)NCCN(CC)CC)cc3OC)nc2N1CCC(C)C` (stereo not shown) [Example 149], which IC50 is on record?
A: 85 nM

Q: With `CC[C@@H]1C(=O)N(C)c2cnc(Nc3ccc(C(=O)NCCN4CCCCC4)cc3OC)nc2N1C(C)C` [Example 72] as the compound, how does the IC50 read?
A: 50 nM

Q: With `Cc1cc(C(=O)NC2CC3CCC(C2)N3C)ccc1Nc1ncc2c(n1)N(C1CCCCC1)[C@H](C)C(=O)N2C` (stereo partly shown) [Example 95] as the compound, how does the IC50 read?
A: 47 nM

Q: With `COc1cc(C(=O)N[C@H]2CC[C@H](N3CCCCC3)CC2)ccc1Nc1ncc2c(n1)N(CCC(C)C)[C@H](C)C(=O)N2C` [Example 29] as the compound, how does the IC50 read?
A: 49 nM
